The results in this text go back to a polymer gas permeability compilation.

Molecules are shown by their SMILES.

`*Oc1c(Br)cc(C(C)(C)c2cc(Br)c(OC(=O)c3cccc(C(*)=O)c3)c(Br)c2)cc1Br` (repeat unit): the CH4 permeability came to 0.142 Barrer, the CO2 permeability stood at 4.93 Barrer, the H2 permeability is 18.1 Barrer and the N2 permeability stood at 0.179 Barrer. The compound further registered an O2 permeability of 1.29 Barrer.
For the compound `*Oc1ccc(S(=O)(=O)c2ccc(Oc3ccc(C(C)(C)c4ccc(*)c(C)c4)cc3C)cc2)cc1` (repeat unit), the CH4 permeability worked out at 0.0706 Barrer, the CO2 permeability amounted to 2.1 Barrer, the N2 permeability is 0.0914 Barrer and the O2 permeability is 0.64 Barrer.
Regarding `*OC(=O)Oc1ccc(C2(c3ccc(*)cc3)c3ccccc3-c3ccccc32)cc1` (repeat unit), the CH4 permeability turned out to be 0.581 Barrer, the CO2 permeability stood at 15.1 Barrer, the N2 permeability came out at 0.592 Barrer and the O2 permeability was found to be 3.18 Barrer.
For `*Oc1ccc(C(C)(c2ccccc2)c2ccc(OC(=O)c3cccc(C(*)=O)c3)cc2)cc1` (repeat unit), the CH4 permeability worked out at 0.59 Barrer, the CO2 permeability amounted to 13.1 Barrer, the N2 permeability was determined as 0.54 Barrer and the O2 permeability was 2.58 Barrer.
`*c1c(C)cc2c(c1C)C1c3ccccc3C2c2cc(C)c(-n3c(=O)c4cc5oc6cc7c(cc6oc5cc4c3=O)C3(C(C)C)c4ccccc4C7(C(C)C)c4cc5oc6cc7c(=O)n(*)c(=O)c7cc6oc5cc43)c(C)c21` (repeat unit) came in with a CH4 permeability of 395 Barrer, a CO2 permeability of 5010 Barrer, an H2 permeability of 4140 Barrer and an N2 permeability of 306 Barrer. The compound further displayed an O2 permeability of 1150 Barrer.
`*c1c(C)cc(C)c(-n2c(=O)c3cc4c(=O)n(*)c(=O)c4cc3c2=O)c1C` (repeat unit) yielded an H2 permeability of 235 Barrer, an N2 permeability of 8.44 Barrer and an O2 permeability of 36.3 Barrer.
Consider `*Nc1c(C)cc(C(C)(C)c2cc(C)c(NC(=O)c3ccc(Oc4cc(C(C)(C)C)c(Oc5ccc(C(*)=O)cc5)cc4C(C)(C)C)cc3)c(C)c2)cc1C` (repeat unit), for which the CH4 permeability stood at 2.24 Barrer, the CO2 permeability came out at 43 Barrer, the N2 permeability came out at 1.73 Barrer and the O2 permeability was 9.38 Barrer.
For the compound `*C(=C(*)c1ccc(-c2ccccc2)cc1)c1ccccc1` (repeat unit), the CH4 permeability stood at 170 Barrer, the CO2 permeability turned out to be 1300 Barrer, the H2 permeability was determined as 440 Barrer and the N2 permeability was 65 Barrer. In addition, the O2 permeability turned out to be 180 Barrer.
Consider `*c1ccc(C(c2ccc(-n3c(=O)c4cc5oc6cc7c(cc6oc5cc4c3=O)C3(CC(C)(C)c4cc5oc6cc8c(=O)n(*)c(=O)c8cc6oc5cc43)CC7(C)C)cc2)(C(F)(F)F)C(F)(F)F)cc1` (repeat unit), for which the CH4 permeability came to 27 Barrer, the CO2 permeability was 520 Barrer, the H2 permeability is 360 Barrer and the N2 permeability worked out at 23 Barrer. The compound further displayed an O2 permeability of 85 Barrer.
On to `*Oc1c(Br)cc(C2(c3cc(Br)c(OC(=O)c4cc(C(*)=O)cc(C(C)(C)C)c4)c(Br)c3)OC(=O)c3ccccc32)cc1Br` (repeat unit), for which the CH4 permeability came out at 1.09 Barrer, the CO2 permeability was found to be 30.6 Barrer, the H2 permeability came to 67.4 Barrer and the N2 permeability stood at 1.19 Barrer. The O2 permeability was found to be 7.41 Barrer.
For `*C(=C(*)c1ccc([Si](C)(C)C)cc1)c1ccccc1` (repeat unit) the same measures were 1550 Barrer, 4700 Barrer, 2600 Barrer, 550 Barrer and 1200 Barrer.
In the case of `*O[Si](C)(C)c1cccc([Si](*)(C)C)c1` (repeat unit), the CH4 permeability was 106 Barrer, the CO2 permeability was 518 Barrer and the O2 permeability was 74 Barrer.
As to `*C(C)=C(*)CC(C)C` (repeat unit), the CH4 permeability is 190 Barrer, the CO2 permeability came out at 900 Barrer, the H2 permeability came to 750 Barrer and the N2 permeability came to 93 Barrer. Further, the O2 permeability came out at 245 Barrer.
Compound `*CC*` (repeat unit) displayed a CH4 permeability of 3.85 Barrer, a CO2 permeability of 7.32 Barrer, an N2 permeability of 0.237 Barrer and an O2 permeability of 0.735 Barrer.
In the case of `*c1ccc(C(C)(C)c2ccc(-c3nc4cc(-c5ccc6[nH]c(*)nc6c5)ccc4[nH]3)cc2)cc1` (repeat unit), the CH4 permeability came out at 0.07 Barrer, the CO2 permeability worked out at 2.91 Barrer, the H2 permeability amounted to 12.2 Barrer and the N2 permeability turned out to be 0.13 Barrer. The same compound showed an O2 permeability of 0.6 Barrer.
For the compound `*Cc1ccc(C*)c(Cl)c1` (repeat unit), the CO2 permeability was 0.0867 Barrer, the H2 permeability worked out at 0.931 Barrer, the N2 permeability turned out to be 0.006 Barrer and the O2 permeability was 0.0456 Barrer.
Take `*c1cc2c(cc1*)C1(C(C)C)c3ccccc3C2(C(C)C)c2cc3c(cc21)Oc1cc2nc(*)c(*)nc2cc1O3` (repeat unit): the CH4 permeability came out at 7.27 Barrer, the H2 permeability worked out at 1100 Barrer, the N2 permeability is 7.09 Barrer and the O2 permeability came out at 61 Barrer.
For `*c1ccc(C(c2ccc(N3C(=O)c4ccc(Oc5cc(C)c(Oc6ccc7c(c6)C(=O)N(*)C7=O)c(C)c5C)cc4C3=O)cc2)(C(F)(F)F)C(F)(F)F)cc1` (repeat unit), the CH4 permeability turned out to be 1.7 Barrer, the CO2 permeability worked out at 54 Barrer, the H2 permeability came to 77 Barrer and the N2 permeability came to 1.9 Barrer. For the same compound, the O2 permeability is 9.3 Barrer.
On to `*C(=C(*)c1ccc([Si](C)(C)C)cc1)c1ccc(-c2ccc(C(C)(C)C)cc2)cc1` (repeat unit), for which the CH4 permeability turned out to be 730 Barrer, the CO2 permeability stood at 3300 Barrer, the H2 permeability was found to be 1200 Barrer and the N2 permeability worked out at 250 Barrer. The O2 permeability was found to be 620 Barrer.
`*c1ccc(*)n1C` (repeat unit) yielded a CH4 permeability of 0.22 Barrer, a CO2 permeability of 6.9 Barrer, an N2 permeability of 0.33 Barrer and an O2 permeability of 2.04 Barrer.
For the compound `*Oc1ccc(Oc2cccc(*)c2C#N)c(-c2cc(C)cc(C)c2)c1` (repeat unit), the CH4 permeability came out at 0.06 Barrer, the CO2 permeability was found to be 3.5 Barrer, the H2 permeability worked out at 9.6 Barrer and the N2 permeability is 0.17 Barrer. For the same compound, the O2 permeability is 0.94 Barrer.
Compound `*Oc1cccc2c(Oc3ccc(S(=O)(=O)c4ccc(*)cc4)cc3)cccc12` (repeat unit) returned a CH4 permeability of 0.036 Barrer, a CO2 permeability of 1.6 Barrer, an N2 permeability of 0.057 Barrer and an O2 permeability of 0.42 Barrer.
For `*Oc1c(C)cc(*)c(C(=O)c2ccc(C)cc2)c1C` (repeat unit), the CH4 permeability came out at 1.49 Barrer, the CO2 permeability worked out at 21.4 Barrer, the N2 permeability was found to be 2.42 Barrer and the O2 permeability was determined as 7.36 Barrer.
Consider `*Oc1ccc(S(=O)(=O)c2ccc(Oc3ccc(C(C)(C)c4ccc(*)c(C(O)(C(F)(F)F)C(F)(F)F)c4)cc3C(O)(C(F)(F)F)C(F)(F)F)cc2)cc1` (repeat unit), for which the CO2 permeability was 5.4 Barrer, the N2 permeability was found to be 0.22 Barrer and the O2 permeability is 1.5 Barrer.
With `*=CC1CCC(C=*)C1` (repeat unit), the CH4 permeability amounted to 2.5 Barrer, the CO2 permeability was 15.4 Barrer, the H2 permeability is 21 Barrer and the N2 permeability is 1.5 Barrer. The compound further showed an O2 permeability of 2.8 Barrer.
